What was measured:
[1] = tested on: NAADP receptor; assay: Ca2+ release from Ca2+ loaded sea urchin egg homogenates; assay type: biochemical, sea urchin (Strongylocentrotus purpuratus); conditions: for potency for Ca2+ release compared to NAADP (fold less potent): text summary of concentration response curves, Figure 2 / Table 3; for concentration as low as which calcium-ion release is induced: Figure 1 traces; for amount of calcium release at saturating concentrations: compared with NAADP; for Fold increase in EC50: relative to NAADP (1)
[2] = tested on: NAADP receptor; assay: Competition ligand binding with [32P]NAADP in sea urchin egg homogenate; conditions: assay not specified
[3] = tested on: NAADP receptor; assay type: biochemical, sea urchin; conditions: 9 min pretreatment at 1 nM or higher (subthreshold concentration)

SMILES | potency for Ca2+ release compared to NAADP (fold less potent) [1] | loss of potency relative to NAADP [2] | Fold increase in EC50 [1] | other results
Nc1cc[n+]([C@H]2O[C@@H](COP(=O)(O)OP(=O)(O)OC[C@H]3O[C@@H](n4cnc5c(N)ncnc54)[C@H](OP(=O)(O)O)[C@@H]3O)[C@H](O)[C@@H]2O)cc1C(=O)[O-] [compound 16, 4-amino-NAADP] | two hundred to two thousand fold less potent | 100 to 200 fold |  | 
CCc1cc(C(=O)[O-])c[n+]([C@H]2O[C@@H](COP(=O)(O)OP(=O)(O)OC[C@H]3O[C@@H](n4cnc5c(N)ncnc54)[C@H](OP(=O)(O)O)[C@@H]3O)[C@H](O)[C@@H]2O)c1 [compound 23, 5-ethyl-NAADP] | 10 to 100 fold | 20 fold |  | 
Cc1cc(C(=O)[O-])c[n+]([C@H]2O[C@@H](COP(=O)(O)OP(=O)(O)OC[C@H]3O[C@@H](n4cnc5c(N)ncnc54)[C@H](OP(=O)(O)O)[C@@H]3O)[C@H](O)[C@@H]2O)c1 [compound 21, 5-methyl-NAADP] | approximately equipotent with NAADP | only slightly less potent than is NAADP itself |  | concentration as low as which calcium-ion release is induced [1]: 2 nM; amount of calcium release at saturating concentrations [1]: same amount of calcium release as did the full agonist NAADP; receptor desensitization to 1 μM NAADP after pretreatment [3]: same characteristic receptor desensitization as does NAADP itself
Nc1ncnc2c1ncn2[C@@H]1O[C@H](COP(=O)(O)OP(=O)(O)OC[C@@H]2O[C@H]([n+]3cc(C(=O)[O-])cc(C(=O)O)c3)[C@@H](O)[C@H]2O)[C@@H](O)[C@H]1OP(=O)(O)O [compound 22, 5-carboxy-NAADP] |  |  | > 50,000 fold | 
CCCCc1cc[n+]([C@H]2O[C@@H](COP(=O)(O)OP(=O)(O)OC[C@H]3O[C@@H](n4cnc5c(N)ncnc54)[C@H](OP(=O)(O)O)[C@@H]3O)[C@H](O)[C@@H]2O)cc1C(=O)[O-] [compound 18, 4-n-butyl-NAADP] |  |  | > 50,000 fold | 
Nc1ncnc2c1ncn2[C@@H]1O[C@H](COP(=O)(O)OP(=O)(O)OC[C@@H]2O[C@H]([n+]3ccc(-c4ccccc4)c(C(=O)[O-])c3)[C@@H](O)[C@H]2O)[C@@H](O)[C@H]1OP(=O)(O)O [compound 19, 4-phenyl-NAADP] |  |  | > 50,000 fold | 
Cc1cc[n+]([C@H]2O[C@@H](COP(=O)(O)OP(=O)(O)OC[C@H]3O[C@@H](n4cnc5c(N)ncnc54)[C@H](OP(=O)(O)O)[C@@H]3O)[C@H](O)[C@@H]2O)cc1C(=O)[O-] [compound 17, 4-methyl-NAADP] | two hundred to two thousand fold less potent | 100 to 200 fold |  | potency for Ca2+ release compared with the 5-isomer 21 ([1]; Figure 1): significantly less potent
[N-]=[N+]=Nc1cc(C(=O)[O-])c[n+]([C@H]2O[C@@H](COP(=O)(O)OP(=O)(O)OC[C@H]3O[C@@H](n4cnc5c(N)ncnc54)[C@H](OP(=O)(O)O)[C@@H]3O)[C@H](O)[C@@H]2O)c1 [compound 24, 5-azido-NAADP] | 10 to 100 fold |  |  | 
Nc1cc(C(=O)[O-])c[n+]([C@H]2O[C@@H](COP(=O)(O)OP(=O)(O)OC[C@H]3O[C@@H](n4cnc5c(N)ncnc54)[C@H](OP(=O)(O)O)[C@@H]3O)[C@H](O)[C@@H]2O)c1 [compound 20, 5-amino-NAADP] | approximately equipotent with NAADP | only slightly less potent than is NAADP itself |  | concentration as low as which calcium-ion release is induced [1]: 2 nM; amount of calcium release at saturating concentrations [1]: same amount of calcium release as did the full agonist NAADP
